The test system of data set [1] is panel of 468 purified human kinases. The data set is described as follows: In vitro kinase percent inhibition, panel of 468 kinases (DiscoverX). The data set is classed as binding. Conditions: 1 μM; for binding to wild-type RET and RET^M918T, in words: kinase panel. Here is the method: Compounds were assayed against a panel of 468 purified human kinases (DiscoverX) to measure percentage inhibition values and derive kinome profiles (FIGS. 3B-3C). All compounds were screened at 1 μM, using two experimental replicates to determine percent inhibition values. Detailed procedures for kinase reactions and assay formats are described at http://www.discoverx.com. Raw data sets for individual compounds were filtered based on the variance of experimental replicates (cutoff=average variance+standard deviation).

Data set [2] relates to ptc>dRet^M955T flies. The data set is described as follows: Fly rescue assay (Drosophila MTC model ptc>dRet^M955T). In kind it is in vivo. The conditions noted are these: compound in fly food; for rescue (percent viability of adult flies, adults/pupae×100): 13 d at 25° C., baseline viability 0%. On the procedure: Kinase-mutated fly stocks were obtained from Bloomington Drosophila Stock Center (BDSC; Bloomington, IN). The active mutant form of Drosophila Ret (dRet^955T) carries an M955T mutation corresponding to the M918T mutation commonly reported for multiple endocrine neoplasia (MEN) type 2B patients12,14,16,34. The ptc-gal4, UAS-GFP;UAS-dRet^M955T/SM5tub-gal80-TM6B transgenic flies were prepared according to standard protocols and crossed with non-transgenic w-flies (BDSC) to generate ptc-gal4, UAS-GFP; UAS-dRet^M955T(ptc>dRet^M955T) flies for chemical screening.
All drugs were synthesized in-house. All compounds were dissolved in DMSO (Sigma-Aldrich; St. Louis, MO) and mixed with semi-defined fly medium (BDSC) to make drug food (0.1% final DMSO concentration). For drug screening, ptc>dRet^M955T embryos were raised until adulthood on drug food for 13 d at 25° C. The number of empty pupal cases (i.e., adults) ? that of total pupal cases (P) to determine % viability. Fly randomization was used throughout the assays.
In this model, compounds are assessed based on their ability to suppress oncogenic Ret^M955T-induced tumors, which can be quantified as ‘rescue’ from lethality. […] The baseline viability of ptc>Ret^1955T flies was calibrated to zero, which creates a high bar for rescue but also reduces false-positive hits. Hundreds of flies are tested per condition (typical n values are […] administered through fly food.

Data set [3] deals with T1, wild-type RET kinase domain (Homo sapiens, UniProt P07949).
T1 construct: determined against recombinant-human, wild-type RET kinase domain; phage display fusion (kinase expressed on phage); purchased DiscoverX (Fremont, CA); host or cells: phage
T1 sequence (P07949 724-1016 limits assumed): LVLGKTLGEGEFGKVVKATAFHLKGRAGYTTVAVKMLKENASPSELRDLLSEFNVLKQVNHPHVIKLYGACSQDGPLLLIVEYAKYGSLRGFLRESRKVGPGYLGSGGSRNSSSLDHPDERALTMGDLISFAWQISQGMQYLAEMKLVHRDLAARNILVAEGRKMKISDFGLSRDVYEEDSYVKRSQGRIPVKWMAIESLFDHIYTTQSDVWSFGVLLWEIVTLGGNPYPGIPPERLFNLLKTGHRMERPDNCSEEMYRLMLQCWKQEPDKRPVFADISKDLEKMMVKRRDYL
The data set is described as follows: Wild-type RET Kd, bead based competition assay (KINOMEscan, DiscoverX). The data set is classed as binding. Conditions: recombinant human wild-type RET kinase domain, average of two replicates; read-out: Kd towards wild-type RET. Here is the method:
Wild-type RET Kd values were determined by DiscoverX (Fremont, CA) using a bead based competition assay (KINOMEscan). In brief, kinases are expressed on phage and immobilized on beads via active site-directed ligands. Test compounds are premixed with kinases and assayed for the ability to compete for immobilized ligands. Binding constants are calculated with a standard dose-response curve and the Hill equation, with Hill slope set to −1. […] Kd values are the average of two experimental replicates.
To assess if the differences in activity between R^F- and R^H-analogs were related to alterations in target engagement, representative analogs for binding on wild-type RET were compared. For this KD values of compounds 40 (para-C2F5) and 50 (para-C2H5) were determined against recombinant-human, wild-type RET kinase domain.

The nature of data set [4]: Caco-2 permeability assay. Conditions: human, 1 hour at 37° C., HBSS pH 7.4 both sides, read-out: influx/efflux ratio in Caco-2. In kind it is in vitro ADME. On the procedure:
(§1) FIGS. 9A-9C show the physicochemical comparison of R^F and R^H Analogs. FIG. 9A is a graph of the MDCK and Caco-2 permeability assays for the indicated compounds. Compounds were assayed at 5 μM and transport (Papp, B-A and Papp, A-B, ×10^−6 cm/s) values were measured to determine influx over efflux ratios. […] There are differences in magnitude for bond and molecular dipoles, and R^F- and R^H-substituents have opposite charge profiles.
(§2) Caco-2 and MDCK permeability assays to assess transport in both directions, apical to basolateral (A-B) and basolateral to apical (B-A), across a cell monolayer were conducted at Quintara Discovery. The compounds were tested at a final concentration of 5 microM, with HBSS, pH 7.4 on apical side and HBSS, pH 7.4 on basolateral side. Transport was allowed to proceed for 1 hour at 37° C., with compound detection performed by LC-MS/MS. Assays were conducted twice. Papp, B-A and Papp, A-B, ×10^−6 cm/s values were determined at Quintara.

Data set [5] deals with P-gp. The data set is described as follows: MDCK permeability assay. In kind it is in vitro ADME. Conditions: dog, 1 hour at 37° C., HBSS pH 7.4 both sides, read-out: influx/efflux ratio in MDCK. Here is the method:
as §1, §2

Data set [6] deals with human MTC cell line TT. The conditions noted are these: previous work; cited from earlier work.
The conditions of data set [7]: cited from earlier work.

Here are results for four compounds from patent publication US20240287081A1, “PERFLUOROALKANE SUBSTITUTED PYRAZOLO[3,4-D]PYRIMIDIN AND PYRROLO[2,3-D]PYRIMIDIN COMPOUNDS AND USES THEREOF” (ICAHN SCHOOL OF MEDICINE AT MOUNT SINAI, priority 2021, published 2024).

Where only a bound is given, the exact number is not on record here.

The Kd is the concentration at which binding is half-saturated. For the compound `CNC(=O)c1cc(Oc2ccc(NC(=O)Nc3ccc(C(F)(F)F)cc3)c(F)c2)ccn1` [APS-4-9-8], the “binding to wild-type RET and RET^M918T, in words” value in data set [1] was “strong binding to wild-type and mutant RET^M918T”. Moreover, in data set [1] (panel of 468 kinases), the “binding profile / selectivity across the kinome, in words” value is on record as “strong binding to a large group of kinases”. For the same compound, the “binding profile / selectivity across the kinome, in words” value in data set [1] (panel of 468 kinases, listed as 4-9-8) is recorded as “low overall selectivity”. Also, in data set [2], the “rescue activity in the fly model, in words” value was “no fly rescue” and the “rescue (percent viability of adult flies, adults/pupae×100)” value came to 0%. In addition, in data set [3], the dissociation constant Kd turned out to be 0.0028 µM.

In the case of `CNC(=O)c1cc(Oc2ccc(NC(=O)Nc3cc(C(F)(C(F)(F)F)C(F)(F)F)ccc3F)cc2)ccn1` [APS-6-45], the values for the efflux ratio at 1 h, 5 µM in data set [4] and in data set [5] were over 2 and under 2, respectively. For the same compound, in data set [2], the “rescue (percent viability of adult flies, adults/pupae×100)” value was 84%. In addition, the “performance in mouse xenograft, in words” value in data set [6] is given as “performed well”.

For `CNC(=O)c1cc(Oc2ccc(NC(=O)Nc3ccc(C(F)(C(F)(F)F)C(F)(F)C(F)(F)F)cc3)c(F)c2)ccn1` (stereo not shown) [APS-8-82-1], in data set [1], the “binding to wild-type RET and RET^M918T, in words” value was “selective for mutant RET^M918T”. In data set [1] (listed as 8-82-1), the “binding to wild-type RET and RET^M918T, in words” value is recorded as “selectivity for the M918T mutant over wild-type”. In addition, in data set [1] (panel of 468 kinases), the “binding profile / selectivity across the kinome, in words” value is “highly selective across the kinome” and the “number of kinases bound with >80% efficacy” value is listed as 7. Moreover, in data set [2], the “rescue (percent viability of adult flies, adults/pupae×100)” value is 85%. Also, the Kd in data set [3] was determined as 0.11 µM.

Regarding `CNC(=O)c1cc(Oc2ccc(NC(=O)Nc3ccc(Cl)c(C(F)(F)F)c3)cc2)ccn1` [Sorafenib, sorafenib], the efflux ratio at 1 h, 5 µM in data set [4] was over 2; in data set [5], under 2. Further, in data set [7], the “protein-bound in blood plasma” value was over 99%.
